Where a name gives a salt, the structure may show the parent alone. Read-outs that look alike come from different tables or passages of the source.

Data set [1] has as its system ICAM-1. The data set is described as follows: Effect on the expression of ICAM-1 in human cultured umbilical cord endothelial cells (TNF-stimulated, ELISA). In kind it is cell-based. Particulars: 1 ng/ml TNF, expression with TNF = 100%, without TNF = 0%, read-out: IC50 (50% inhibitory concentration of ICAM-1 expression). Here is the method: Effect on the Expression of ICAM-1 in Human Cultured Umbilical Cord Endothelial Cells
Examination was made on the effect on the expression of ICAM-1 which is one of adhesion molecules expressed on the surfaces of cultured endothelia cells. The endotheliall cells were suspended in an MCDB131 medium containing 10% of fetal calf serum and pipetted into a 96-well culture plate (10,000 cells/well). After culturing at 37° C. in the presence of 5% of carbon dioxide for 2 days, 1 ng/ml of a tumor necrosis factor (TNF) and a test compound were added to the 96-well culture plate. After culturing at 37° C. in the presence of 5% of carbon dioxide for 4 hours and then washing with a phosphate buffer once, 0.05% of glutaraldehyde was added thereto. Six minutes thereafter, the plate was washed twice and 1 μg/ml of a mouse antihuman ICAM-1 antibody was added thereto. After allowing to stand for 1 hour, it was washed twice and a peroxidase-labeled sheep antimouse immunoglobulin antibody was added thereto. After allowing to stand for 1 hour, it was washed twice and a color developing substrate for peroxidase (o-phenylenediamine) was added thereto. After allowing to stand at room temperature for 10 minutes, a 1 N solution of sulfuric acid was added thereto. Then the absorbance at 490 nm was measured with the use of an absorptiometer for 96-well plate. The value thus obtained was employed as an indication of the ICAM-1 expression.
In general terms: An ELISA detects its analyte on a solid surface through an enzyme-linked reagent.

For data set [2], the system named is Carrageenin-induced Rat Pleurisy. Description: Effect on carrageenin-induced rat pleurisy. The settings on record: total cell count in pleural exudate 5 hours after carrageenin; for inhibition in vivo at 10 mg/kg / Inhibitory ratio (%): dose 10 mg/kg orally 30 minutes before carrageenin; for Inhibitory ratio (%): 10 mg/kg; for inhibition in vivo at 30 mg/kg: dose 30 mg/kg orally 30 minutes before carrageenin. In kind it is in vivo. Here is the method: Effect on Carrageenin-induced Rat Pleurisy
200 μl of a carrageenin solution (10 mg/ml in physiological saline) was intrathoracically injected into rats. Five hours thereafter, blood of the animals was collected from the abdominal aorta under etherization so as to induce death from blood loss. The exudate was taken up from the thoracic cavity and weighed with a single-pan balance. Further, the exudate was diluted with Turk's solution and the cells were counted by using a counting chamber. Next the total cell count was calculated by multiplying the cell count by the exudate volume. Thus the inhibitory ratio was calculated by taking the total cell count with the administration of carrageenin as 100% and that with the administration of physiological saline as 0%. Each test compound was suspended in a 0.5% solution of methylcellulose and orally administered at a dose of 5 ml/kg 30 minutes before the injection of carrageenin.

Where [3] appears, read: Homo sapiens, Endothelial cell, 4 h.
The mark [4] stands for this setting: Rattus norvegicus, po, 5 h, read-out: Inhibitory ratio (%).

With `O=C(O)CC1CC2(CCN(Cc3ccc4c(c3)Nc3nccnc3S4)CC2)C1` [Example 677], the IC50 in data set [1] (setting [3]) worked out at 900 nM. Besides, the inhibition in vivo at 10 mg/kg in data set [2] (setting [4]) stood at 76%.

`O=C(O)C1CC2CC(C1)CN(Cc1ccc3c(c1)Nc1nccnc1S3)C2` (stereo not drawn) [Example 98]: the IC50 in data set [1] (setting [3]) came to 2400 nM. Also, in data set [2] (setting [4]), the inhibition in vivo at 10 mg/kg is 30%.

Turning to `CC(C(=O)O)C1C2CCCC1CN(Cc1ccc3c(c1)Nc1nccnc1S3)C2` (stereo not drawn) [Example 83], the IC50 in data set [1] (4 hours) is 2800 nM. The inhibition in vivo at 10 mg/kg in data set [2] (setting [4]) came out at 34%.

`O=C(O)c1ccc(OCCC2C3CCCC2CN(Cc2ccc4c(c2)Nc2nccnc2S4)C3)cc1` (stereo not drawn) [Example 121]: in data set [1] (setting [3]), the IC50 was determined as 7400 nM. In data set [2] (setting [4]), the inhibition in vivo at 10 mg/kg turned out to be 70%.

Regarding `CC1CC(C)C2CN(Cc3ccc4c(c3)Nc3nccnc3S4)CC1C2C(C)C(=O)O` (stereo not drawn) [Example 31, (−)-(anti)-(6R*,8R*)-2-[3-(10H-pyrazino[2,3-b][1,4]benzothiazin-8-ylmethyl)-6,8-dimethyl-3-azabicyclo[3.3.1]non-9-yl]propanoic acid], the IC50 in data set [1] (4 hours) turned out to be 1100 nM. For the same compound, the “Inhibitory ratio (%)” value in data set [2] came to 38%.

Take `CNS(=O)(=O)NC1CCN(Cc2ccc3c(c2)Nc2nccnc2S3)CC1` [Example 403]: the IC50 in data set [1] (setting [3]) was determined as 340 nM. In addition, in data set [2] (setting [4]), the inhibition in vivo at 10 mg/kg worked out at 35%.

Consider `CC1C(C)C2CN(Cc3ccc4c(c3)Nc3nccnc3S4)CC1C2CC(=O)O` (stereo not drawn) [Example 23, (+)-(anti)-(6R*,7R*)-[3-(10H-Pyrazino[2,3-b][1,4]benzothiazin-8-ylmethyl)-6,7-dimethyl-3-azabicyclo[3.2.1]oct-8-yl]acetic acid], for which the IC50 in data set [1] (4 hours) was 1600 nM. In data set [2] (setting [4]), the inhibition in vivo at 10 mg/kg was 52%.

For `CC1CC(C)C2CN(Cc3ccc4c(c3)Nc3nccnc3S4)CC1C2C(C)C(=O)O` (stereo not drawn) [Example 30, (+)-(anti)-(6R*,8R*)-2-[3-(10H-pyrazino[2,3-b][1,4]benzothiazin-8-ylmethyl)-6,8-dimethyl-3-azabicyclo[3.3.1]non-9-yl]propanoic acid], the IC50 in data set [1] (4 hours) was 500 nM. The “Inhibitory ratio (%)” value in data set [2] came out at 85%.

Turning to `CC1C(C)C2CN(Cc3ccc4c(c3)Nc3nccnc3S4)CC1C2CC(=O)O` (stereo not drawn) [Example 89], the IC50 in data set [1] (setting [3]) worked out at 2800 nM. For the same compound, the inhibition in vivo at 10 mg/kg in data set [2] (setting [4]) was found to be 83%.

In the case of `O=C(O)C1CC2(CCN(Cc3ccc4c(c3)Nc3nccnc3S4)CC2)C1` [Example 686], the IC50 in data set [1] (setting [3]) came to 900 nM. Also, the inhibition in vivo at 10 mg/kg in data set [2] (setting [4]) stood at 71%.

As for `O=C(O)C1(C2CCN(Cc3ccc4c(c3)Nc3nccnc3S4)CC2)CC1` [Example 698], the IC50 in data set [1] (setting [3]) turned out to be 490 nM. Further, the inhibition in vivo at 10 mg/kg in data set [2] (setting [4]) stood at 26%.

Regarding `O=C(O)CC1C2CCCC1CN(Cc1ccc3c(c1)Nc1nccnc1S3)C2` (stereo not drawn) [Example 18, (anti)-[3-(10H-Pyrazino[2,3-b][1,4]benzothiazin-8-ylmethyl)-3-azabicyclo[3.3.1]non-9-yl]acetic acid], the IC50 in data set [1] (4 hours) is 3500 nM. Besides, the “Inhibitory ratio (%)” value in data set [2] was found to be 67%.

In the case of `CS(=O)(=O)NC1CCN(Cc2ccc3c(c2)Nc2nccnc2S3)CC1` [Example 402], in data set [1] (setting [3]), the IC50 was 320 nM. Besides, the inhibition in vivo at 10 mg/kg in data set [2] (setting [4]) turned out to be 57%.

In the case of `N#C/N=C(\N)Cc1ccc2c(c1)Nc1nccnc1S2` [Example 1487, N^2-Cyano-(10H-pyrazino[2,3-b][1,4]benzothiazin-8-yl)acetamidine], the IC50 in data set [1] (setting [3]) worked out at 670 nM. Also, the inhibition in vivo at 30 mg/kg in data set [2] (setting [4]) came out at 32%.

With `c1cncc(NCc2ccc3c(c2)Nc2nccnc2S3)c1` [Example 901, 8-[N-(Pyridin-3-yl)aminomethyl]-10H-pyrazino[2,3-b][1,4]benzothiazine], in data set [1] (setting [3]), the IC50 stood at 1800 nM. For the same compound, in data set [2] (setting [4]), the inhibition in vivo at 30 mg/kg is 38%.

Regarding `O=C(O)C1CC2CC3CN(Cc4ccc5c(c4)Nc4nccnc4S5)CC(C2)C31` (stereo not drawn) [Example 106], in data set [1] (setting [3]), the IC50 worked out at 2800 nM. In addition, the inhibition in vivo at 10 mg/kg in data set [2] (setting [4]) came to 46%.

Consider `CC(CCC1CCN(Cc2ccc3c(c2)Nc2nccnc2S3)CC1)C(=O)O` (stereo not drawn) [Example 729], for which, in data set [1] (setting [3]), the IC50 worked out at 1300 nM. For the same compound, the inhibition in vivo at 10 mg/kg in data set [2] (setting [4]) amounted to 64%.

With `O=C(O)CC1C2CCCC1CN(Cc1ccc3c(c1)Nc1nccnc1S3)C2` (stereo not drawn) [Example 1568, (endo,anti)-[3-(10H-Pyrazino[2,3-b][1,4]benzothiazin-8-ylmethyl)-3-azabicyclo[3.3.1]non-9-yl]acetic acid], the IC50 in data set [1] (4 hours) is 500 nM. The inhibition in vivo at 30 mg/kg in data set [2] (setting [4]) amounted to 50%.

Consider `O=C(O)Cc1ccc(C2CCN(Cc3ccc4c(c3)Nc3nccnc3S4)CC2)cc1` [Example 659], for which, in data set [1] (setting [3]), the IC50 is 710 nM. The inhibition in vivo at 10 mg/kg in data set [2] (setting [4]) worked out at 20%.

Regarding `CN(C)S(=O)(=O)NC1CCN(Cc2ccc3c(c2)Nc2nccnc2S3)CC1` [Example 460], the IC50 in data set [1] (setting [3]) was 320 nM. In data set [2] (setting [4]), the inhibition in vivo at 10 mg/kg stood at 57%.

As to `CC1C(C)C2CN(Cc3ccc4c(c3)Nc3nccnc3S4)CC1C2CC(=O)O` (stereo not drawn) [Example 24, (−)-(anti)-(6R*,7R*)-[3-(10H-Pyrazino[2,3-b][1,4]benzothiazin-8-ylmethyl)-6,7-dimethyl-3-azabicyclo[3.2.1]oct-8-yl]acetic acid], in data set [1] (4 hours), the IC50 is 4100 nM. For the same compound, the “Inhibitory ratio (%)” value in data set [2] came to 54%.

Take `O=C(O)CC1C2CCCC1CN(Cc1ccc3c(c1)Nc1nccnc1S3)C2` (stereo not drawn) [Example 15, (syn)-[3-(10H-Pyrazino[2,3-b][1,4]benzothiazin-8-ylmethyl)-3-azabicyclo[3.3.1]non-9-yl]acetic acid]: in data set [1] (4 hours), the IC50 amounted to 2300 nM. Further, the inhibition in vivo at 10 mg/kg in data set [2] (setting [4]) was found to be 64%.

Regarding `CC1CC(C)C2CN(Cc3ccc4c(c3)Nc3nccnc3S4)CC1C2CC(=O)O` (stereo not drawn) [Example 79], the inhibition in vivo at 10 mg/kg in data set [2] (setting [4]) stood at 44%.

Turning to `OC(c1cccnc1)c1ccc2c(c1)Nc1nccnc1S2` (stereo not drawn) [Example 1145], the IC50 in data set [1] (setting [3]) is 770 nM. In addition, in data set [2] (setting [4]), the inhibition in vivo at 10 mg/kg was determined as 29%.

For `CC1CCC2CN(Cc3ccc4c(c3)Nc3nccnc3S4)CC1C2CC(=O)O` (stereo not drawn) [Example 91], the IC50 in data set [1] (setting [3]) is 2900 nM. In data set [2] (setting [4]), the inhibition in vivo at 10 mg/kg amounted to 76%.

Turning to `CC(C)(O)c1ncnc2c1ncn2Cc1ccc2c(c1)Nc1nccnc1S2` [Example 1439], the IC50 in data set [1] (setting [3]) was found to be 490 nM. For the same compound, in data set [2] (setting [4]), the inhibition in vivo at 30 mg/kg worked out at 77%.

As for `NCc1ccc2c(c1)Nc1nccnc1S2` [Example 1241, 8-(Aminomethyl)10H-pyrazino[2,3-b][1,4]benzothiazine hydrochloride], the IC50 in data set [1] (setting [3]) is 3600 nM. In addition, the inhibition in vivo at 100 mg/kg in data set [2] (Rattus norvegicus, po, 5 h, dose 100 mg/kg orally 30 minutes before carrageenin, read-out: Inhibitory ratio (%)) is 28%.

In the case of `O=C(O)C1C2CCC1CN(Cc1ccc3c(c1)Nc1nccnc1S3)C2` (stereo not drawn) [Example 73], in data set [1] (setting [3]), the IC50 is 600 nM. For the same compound, the inhibition in vivo at 10 mg/kg in data set [2] (setting [4]) turned out to be 74%.

Take `O=C(O)CC1CCC2CN(Cc3ccc4c(c3)Nc3nccnc3S4)CC2C1` (stereo not drawn) [Example 717]: in data set [1] (setting [3]), the IC50 amounted to 1150 nM. The inhibition in vivo at 10 mg/kg in data set [2] (setting [4]) was 32%.

For `CC1CC(C)C2CN(Cc3ccc4c(c3)Nc3nccnc3S4)CC1C2CCCC(=O)O` (stereo not drawn) [Example 102], the melting point (as a rule, the temperature, or range, at which the solid turns liquid) fell in the range of 98 to 105 °C. Also, the IC50 in data set [1] (setting [3]) came out at 2600 nM.

On to `O=C(O)CC1C2CCC1CN(Cc1ccc3c(c1)Nc1nccnc1S3)C2` (stereo not drawn) [Example 71], for which the IC50 in data set [1] (setting [3]) came out at 800 nM. Besides, the inhibition in vivo at 10 mg/kg in data set [2] (setting [4]) worked out at 94%.

With `CC1CC(C)C2CN(Cc3ccc4c(c3)Nc3nccnc3S4)CC1C2CCC(=O)O` (stereo not drawn) [Example 101], the IC50 in data set [1] (setting [3]) was 2600 nM. Also, the inhibition in vivo at 10 mg/kg in data set [2] (setting [4]) was 48%.

These data come from patent US6518423B1, “Benzopiperidine derivatives” (Eisai Co., Ltd., priority 1996, dated 2003).
